What is called mass density is mass per unit of volume. One may read the viscosity as the internal friction of a fluid under shear. The refractive index is the speed of light in vacuum divided by its phase velocity in the sample.

For data set [1] the following is noted: 101.33 kPa, Liquid.
Data set [2] is described as follows: refractive index (Na D-line) (dimensionless). The conditions noted are these: 101.33 kPa, Liquid.
The nature of data set [3]: xn = mol fraction of the nth substance listed. The conditions noted are these: 101.3 kPa, Liquid.
A short description of data set [4]: refractive index (Na D-line) (dimensionless); xn = mol fraction of the nth substance listed. The conditions noted are these: 101.3 kPa, Liquid.

Structures are written as SMILES. ± gives the expanded uncertainty stated by the source.

For `CCc1ccccc1` [ethylbenzene], the mass density in data set [1] (303.15 K) turned out to be 857.6 ± 1.8 kg/m3; in data set [1] (313.15 K), 849.2 ± 2 kg/m3. Also, the viscosity in data set [1] (303.15 K) came to 0.597 ± 0.016 mPa·s; in data set [1] (313.15 K), 0.538 ± 0.015 mPa·s. The refractive index is 1.491 ± 0.0025 in data set [2] (303.15 K) and 1.4891 ± 0.0025 in data set [2] (313.15 K).
As to `Cc1cccc(C)c1` [1,3-dimethylbenzene], the mass density is 855.3 ± 1.8 kg/m3 in data set [1] (303.15 K) and 847.1 ± 2 kg/m3 in data set [1] (313.15 K). The figures for the viscosity in data set [1] (303.15 K) and in data set [1] (313.15 K) were 0.557 ± 0.015 mPa·s and 0.508 ± 0.014 mPa·s, respectively. Besides, the refractive index in data set [2] (303.15 K) stood at 1.492 ± 0.0025; in data set [2] (313.15 K) it was 1.4901 ± 0.0025.
`CCOC(=O)c1ccccc1` [ethyl benzoate]: the values for the mass density in data set [1] (303.15 K) and in data set [1] (313.15 K) were 1037.4 ± 2.3 kg/m3 and 1028.5 ± 2.4 kg/m3, respectively. For the same compound, the values for the viscosity in data set [1] (303.15 K) and in data set [1] (313.15 K) were 1.748 ± 0.042 mPa·s and 1.438 ± 0.035 mPa·s, respectively. The refractive index was found to be 1.5009 ± 0.0025 in data set [2] (303.15 K) and 1.4997 ± 0.0025 in data set [2] (313.15 K).
On to `CCOC=O` [ethyl methanoate], for which the mass density is listed as 908.1 ± 2.1 kg/m3 in data set [1] (303.15 K) and 894.9 ± 2.2 kg/m3 in data set [1] (313.15 K). The figures for the viscosity in data set [1] (303.15 K) and in data set [1] (313.15 K) were 0.366 ± 0.011 mPa·s and 0.339 ± 0.011 mPa·s, respectively. For the same compound, the values for the refractive index in data set [2] (303.15 K) and in data set [2] (313.15 K) were 1.3552 ± 0.0032 and 1.3549 ± 0.0032, respectively.
Regarding `Cc1ccc(C)cc1` [1,4-dimethylbenzene], the values for the mass density in data set [1] (303.15 K) and in data set [1] (313.15 K) were 851.9 ± 1.8 kg/m3 and 844 ± 2 kg/m3, respectively. Also, the viscosity in data set [1] (303.15 K) was determined as 0.566 ± 0.016 mPa·s; in data set [1] (313.15 K), 0.517 ± 0.015 mPa·s. Further, the refractive index was found to be 1.4911 ± 0.0025 in data set [2] (303.15 K) and 1.4902 ± 0.0025 in data set [2] (313.15 K).
On to `CCOC=O` [ethyl methanoate] + CCc1ccccc1, for which the mass density is 862.2 ± 3.5 kg/m3 in data set [3] (303.15 K, x1 = 0.1478); 869.9 ± 3.6 kg/m3 in data set [3] (303.15 K, x1 = 0.2728); 871.2 ± 3.6 kg/m3 in data set [3] (303.15 K, x1 = 0.3884); 876.3 ± 3.6 kg/m3 in data set [3] (303.15 K, x1 = 0.4978); 881.8 ± 3.6 kg/m3 in data set [3] (303.15 K, x1 = 0.6); 886.6 ± 3.6 kg/m3 in data set [3] (303.15 K, x1 = 0.6925). Further, the mass density is given as 891 ± 3.7 kg/m3 in data set [3] (303.15 K, x1 = 0.7768); 896.6 ± 3.7 kg/m3 in data set [3] (303.15 K, x1 = 0.851); 903.7 ± 3.7 kg/m3 in data set [3] (303.15 K, x1 = 0.9309); 853.7 ± 3.8 kg/m3 in data set [3] (313.15 K, x1 = 0.1478); 857.7 ± 3.9 kg/m3 in data set [3] (313.15 K, x1 = 0.2728); 861.8 ± 3.9 kg/m3 in data set [3] (313.15 K, x1 = 0.3884). For the same compound, the mass density was determined as 866.3 ± 3.9 kg/m3 in data set [3] (313.15 K, x1 = 0.4978); 873.2 ± 3.9 kg/m3 in data set [3] (313.15 K, x1 = 0.6); 875.9 ± 3.9 kg/m3 in data set [3] (313.15 K, x1 = 0.6925); 880 ± 4 kg/m3 in data set [3] (313.15 K, x1 = 0.7768); 885.1 ± 4 kg/m3 in data set [3] (313.15 K, x1 = 0.851); 891.7 ± 4 kg/m3 in data set [3] (313.15 K, x1 = 0.9309). For the same compound, the viscosity is given as 0.558 ± 0.015 mPa·s in data set [3] (303.15 K, x1 = 0.1478); 0.527 ± 0.015 mPa·s in data set [3] (303.15 K, x1 = 0.2728); 0.499 ± 0.014 mPa·s in data set [3] (303.15 K, x1 = 0.3884); 0.473 ± 0.014 mPa·s in data set [3] (303.15 K, x1 = 0.4978); 0.45 ± 0.013 mPa·s in data set [3] (303.15 K, x1 = 0.6); 0.43 ± 0.013 mPa·s in data set [3] (303.15 K, x1 = 0.6925). In addition, the viscosity in data set [3] (303.15 K, x1 = 0.7768) amounted to 0.413 ± 0.012 mPa·s; in data set [3] (303.15 K, x1 = 0.851) it was 0.397 ± 0.012 mPa·s; in data set [3] (303.15 K, x1 = 0.9309), 0.38 ± 0.011 mPa·s; in data set [3] (313.15 K, x1 = 0.1478), 0.502 ± 0.014 mPa·s; in data set [3] (313.15 K, x1 = 0.2728) it was 0.476 ± 0.014 mPa·s; in data set [3] (313.15 K, x1 = 0.3884), 0.452 ± 0.013 mPa·s. Further, the viscosity came to 0.42 ± 0.012 mPa·s in data set [3] (313.15 K, x1 = 0.4978); 0.409 ± 0.012 mPa·s in data set [3] (313.15 K, x1 = 0.6); 0.391 ± 0.012 mPa·s in data set [3] (313.15 K, x1 = 0.6925); 0.376 ± 0.011 mPa·s in data set [3] (313.15 K, x1 = 0.7768); 0.363 ± 0.011 mPa·s in data set [3] (313.15 K, x1 = 0.851); 0.351 ± 0.011 mPa·s in data set [3] (313.15 K, x1 = 0.9309). The refractive index is recorded as 1.4809 ± 0.005 in data set [4] (303.15 K, x1 = 0.1478); 1.4691 ± 0.005 in data set [4] (303.15 K, x1 = 0.2728); 1.4568 ± 0.005 in data set [4] (303.15 K, x1 = 0.3884); 1.4431 ± 0.005 in data set [4] (303.15 K, x1 = 0.4978); 1.4286 ± 0.005 in data set [4] (303.15 K, x1 = 0.6); 1.4157 ± 0.005 in data set [4] (303.15 K, x1 = 0.6925). The refractive index in data set [4] (303.15 K, x1 = 0.7768) worked out at 1.4058 ± 0.005; in data set [4] (303.15 K, x1 = 0.851), 1.3938 ± 0.005; in data set [4] (303.15 K, x1 = 0.9309), 1.3709 ± 0.005; in data set [4] (313.15 K, x1 = 0.1478), 1.4791 ± 0.005; in data set [4] (313.15 K, x1 = 0.2728) it was 1.4682 ± 0.005; in data set [4] (313.15 K, x1 = 0.3884), 1.4532 ± 0.005. For the same compound, the refractive index is on record as 1.4415 ± 0.005 in data set [4] (313.15 K, x1 = 0.4978); 1.4269 ± 0.005 in data set [4] (313.15 K, x1 = 0.6); 1.4142 ± 0.005 in data set [4] (313.15 K, x1 = 0.6925); 1.4042 ± 0.005 in data set [4] (313.15 K, x1 = 0.7768); 1.3921 ± 0.005 in data set [4] (313.15 K, x1 = 0.851); 1.3695 ± 0.005 in data set [4] (313.15 K, x1 = 0.9309).

The record behind these values is the NIST ThermoML archive (doi:10.1021/je0400052).
